Reference: ChEMBL document CHEMBL5260816, “Synthesis and biological evaluation of the natural product komaroviquinone and related compounds aiming at a potential therapeutic lead compound for high-risk multiple myeloma” (Bioorg Med Chem Lett, 2017)

Legend:
[1] = Cytotoxicity against human MUM24 cells assessed as reduction in cell viability incubated for 48 hrs by MTT assay; assay type: functional, cell-based; details: MUM24, 48 h
[2] = Toxicity in ICR mouse bone marrow cells assessed as inhibition of cell differentiation incubated for 14 days by colony forming cell assay; assay type: cell-based; details: 336 h, time 14 day
[3] = Toxicity in ICR mouse bone marrow cells assessed as inhibition of cell differentiation at higher concentration incubated for 14 days by colony forming cell assay; assay type: cell-based; details: 336 h, time 14 day
[4] = Toxicity in ICR mouse bone marrow cells assessed as inhibition of cell differentiation at 1 uM incubated for 14 days by colony forming cell assay; assay type: cell-based; details: 336 h, time 14 day

| Compound | IC50 [1] | further results |
| --- | --- | --- |
| COc1cc(C[C@@]23CCCC(C)(C)[C@@H]2CC(=O)O3)c(OC)c(OC)c1C(C)C | 4.97 µM | – |
| COC1=C(C(C)C)C(=O)C=C(C[C@@]23CCCC(C)(C)[C@@H]2CC(=O)O3)C1=O | < 3 µM | – |
| COC1=C(C(C)C)C(=O)C=C(Cc2ccccc2)C1=O | < 3 µM | – |
| COC1=C(C(C)C)C(=O)C=C(CNC(=O)C2CCCCC2)C1=O | < 3 µM | – |
| COC1=C(C(C)C)C(=O)C=C(COC(C)C)C1=O | < 3 µM | – |
| COC1=C(C(C)C)C(=O)C=C(COC(Cn2cncn2)c2ccc(F)cc2F)C1=O (centres undefined) | 3.31 µM | – |
| COC1=C(C(C)C)C(=O)C=C(CC(O)(Cn2cncn2)c2ccc(F)cc2F)C1=O (centres undefined) | 2.49 µM | Activity [2]: Toxic |
| COc1c2c(c(OC)c(C(C)C)c1OC)C(=O)CCC2 | > 30 µM | – |
| COc1c(O)c2c(c(O)c1C(C)C)C(=O)C[C@H]1C(C)(C)CCC[C@]1(O)C2 | 6.13 µM | Activity [2]: Toxic |
| COc1cc(CC(O)(Cn2cncn2)c2ccc(F)cc2F)c(OC)c(OC)c1C(C)C (centres undefined) | 9.85 µM | Activity [3]: Non-Toxic |
| COc1c2c(c(OC)c(C(C)C)c1OC)C(=O)CCCC2 | > 30 µM | – |
| COC1=C(C(C)C)C(=O)c2ccc(-c3ccccc3)nc2C1=O | 4.12 µM | – |
| COc1c(OC(C)=O)c2c(c(OC(C)=O)c1C(C)C)C(=O)C[C@H]1C(C)(C)CCC[C@]1(O)C2 | 19.4 µM | – |
| COc1c2c(c(OC)c(C(C)C)c1OC)C(=O)C[C@H]1C(C)(C)CCC[C@]1(O)C2 | > 10 µM | – |
| COc1cc(CC2=CCCC(C)(C)[C@@H]2CC(=O)O)c(OC)c(OC)c1C(C)C | > 10 µM | – |
| COc1c(OC(C)=O)c2c(c(O)c1C(C)C)C(=O)C[C@H]1C(C)(C)CCC[C@]1(O)C2 | 12.5 µM | – |
| COC1=C(C(C)C)C(=O)c2cc3c(nc2C1=O)CCCC3 | 1.39 µM | – |
| COc1cc(COC(Cn2cncn2)c2ccc(F)cc2F)c(OC)c(OC)c1C(C)C (centres undefined) | 7 µM | Activity [3]: Non-Toxic |
| COC1=C(C(C)C)C(=O)C2=C(C[C@@]34CCCC(C)(C)[C@@H]3C[C@]2(O)O4)C1=O [KOMAROVIQUINONE] | 0.65 µM | Activity [4]: Toxic |
